# Laboratory results as given in article PMC5218480 (PLoS ONE, 2017).
# Test system: MV-4-11 cells
# Assay: Gene expression microarray analysis (Affymetrix PrimeView) and GSEA
# Type: cell-based, human
# Parameters: RFU PODN (11730768_x_at) / Fold change /veh PODN (11730768_x_at) / RFU LINC00158 (11744669_a_at) / Fold change /veh LINC00158 (11744669_a_at) / RFU DUSP10 (11751237_a_at) / Fold change /veh DUSP10 (11751237_a_at) / RFU ID3 (11757404_x_at) / Fold change /veh ID3 (11757404_x_at) / RFU PLEKHG5 (11737974_s_at) / Fold change /veh PLEKHG5 (11737974_s_at) / RFU LRRC4B (11730491_at) / Fold change /veh LRRC4B (11730491_at) / RFU GIMAP4 (11747438_a_at) / Fold change /veh GIMAP4 (11747438_a_at) / RFU KRT8 (11758183_x_at) / Fold change /veh KRT8 (11758183_x_at) / RFU CNN1 (11734310_a_at) / Fold change /veh CNN1 (11734310_a_at) / RFU VPS37D (11726825_at) / Fold change /veh VPS37D (11726825_at) / RFU C10orf10 (11716522_x_at) / Fold change /veh C10orf10 (11716522_x_at) / RFU KIR2DL2 /// KIR2DL4 /// KIR2DL5A /// KIR2DL5B /// KIR2DS1 /// KIR2DS2 /// KIR2DS3 /// KIR2DS4 /// KIR3DL3 /// KIR3DL3 /// KIR3DS1 (11738374_at) / Fold change /veh KIR2DL2 /// KIR2DL4 /// KIR2DL5A /// KIR2DL5B /// KIR2DS1 /// KIR2DS2 /// KIR2DS3 /// KIR2DS4 /// KIR3DL3 /// KIR3DL3 /// KIR3DS1 (11738374_at) / RFU C1QL1 (11718748_at) / Fold change /veh C1QL1 (11718748_at) / RFU TMPRSS4 (11747572_a_at) / Fold change /veh TMPRSS4 (11747572_a_at) / RFU HAMP (11756126_x_at) / Fold change /veh HAMP (11756126_x_at) / RFU RNFT2 (11725882_a_at) / Fold change /veh RNFT2 (11725882_a_at) / RFU NR4A2 (11747474_a_at) / Fold change /veh NR4A2 (11747474_a_at) / RFU ABCC12 (11746883_a_at) / Fold change /veh ABCC12 (11746883_a_at) / RFU TMEM136 (11760407_x_at) / Fold change /veh TMEM136 (11760407_x_at) / RFU CLDN22 /// WWC2 (11732394_at) / Fold change /veh CLDN22 /// WWC2 (11732394_at) / RFU HLA-DPB1 (11760878_x_at) / Fold change /veh HLA-DPB1 (11760878_x_at) / RFU SPINT1 (11716480_a_at) / Fold change /veh SPINT1 (11716480_a_at) / RFU GAP43 (11754022_s_at) / Fold change /veh GAP43 (11754022_s_at) / RFU A4GNT (11735810_at) / Fold change /veh A4GNT (11735810_at) / RFU PRB3 (11715151_x_at) / Fold change /veh PRB3 (11715151_x_at) / RFU TUBB4B (11761932_at) / Fold change /veh TUBB4B (11761932_at) / RFU CAPN14 (11732068_a_at) / Fold change /veh CAPN14 (11732068_a_at) / RFU TMCC2 (11721928_a_at) / Fold change /veh TMCC2 (11721928_a_at) / RFU IRGQ (11745062_a_at) / Fold change /veh IRGQ (11745062_a_at) / RFU FAM174B (11720279_a_at) / Fold change /veh FAM174B (11720279_a_at) / RFU TMPRSS4 (11748680_a_at) / Fold change /veh TMPRSS4 (11748680_a_at) / RFU FAM212B (11763350_a_at) / Fold change /veh FAM212B (11763350_a_at) / RFU PLEKHG5 (11743358_a_at) / Fold change /veh PLEKHG5 (11743358_a_at) / RFU ZSCAN30 (11745921_a_at) / Fold change /veh ZSCAN30 (11745921_a_at) / RFU CMKLR1 (11741424_a_at) / Fold change /veh CMKLR1 (11741424_a_at) / RFU LOC101060620 /// MAPK8IP1 (11723275_at) / Fold change /veh LOC101060620 /// MAPK8IP1 (11723275_at) / RFU SPTSSB (11747773_x_at) / Fold change /veh SPTSSB (11747773_x_at) / RFU PRSS12 (11739890_at) / Fold change /veh PRSS12 (11739890_at) / RFU BIN1 (11741810_x_at) / Fold change /veh BIN1 (11741810_x_at) / RFU WNT11 (11732464_a_at) / Fold change /veh WNT11 (11732464_a_at) / RFU C10orf10 (11716521_a_at) / Fold change /veh C10orf10 (11716521_a_at) / RFU C5orf56 (11738089_at) / Fold change /veh C5orf56 (11738089_at) / RFU CYB561 (11721691_x_at) / Fold change /veh CYB561 (11721691_x_at) / RFU ANKRD19P (11752326_a_at) / Fold change /veh ANKRD19P (11752326_a_at) / RFU OR2T12 /// OR2T33 /// OR2T8 (11738714_s_at) / Fold change /veh OR2T12 /// OR2T33 /// OR2T8 (11738714_s_at) / RFU VCAN (11748164_a_at) / Fold change /veh VCAN (11748164_a_at) / RFU JSRP1 (11732532_at) / Fold change /veh JSRP1 (11732532_at) / RFU KRTAP10-11 (11738290_x_at) / Fold change /veh KRTAP10-11 (11738290_x_at) / RFU MYO3A (11730013_a_at) / Fold change /veh MYO3A (11730013_a_at) / RFU EBF3 (11725865_a_at) / Fold change /veh EBF3 (11725865_a_at) / RFU CAMK2N1 (11719241_x_at) / Fold change /veh CAMK2N1 (11719241_x_at) / RFU C5orf56 (11738088_a_at) / Fold change /veh C5orf56 (11738088_a_at) / RFU OLFML3 (11715873_a_at) / Fold change /veh OLFML3 (11715873_a_at) / RFU LOC100653217 /// NTM (11731650_a_at) / Fold change /veh LOC100653217 /// NTM (11731650_a_at) / RFU MAPK11 (11762145_a_at) / Fold change /veh MAPK11 (11762145_a_at) / RFU FIZ1 (11724087_x_at) / Fold change /veh FIZ1 (11724087_x_at) / RFU OASL (11726364_x_at) / Fold change /veh OASL (11726364_x_at) / RFU SOX15 (11748057_x_at) / Fold change /veh SOX15 (11748057_x_at) / RFU CD79A (11719716_a_at) / Fold change /veh CD79A (11719716_a_at) / RFU HIST1H1D (11736915_at) / Fold change /veh HIST1H1D (11736915_at) / RFU CASKIN2 (11723855_a_at) / Fold change /veh CASKIN2 (11723855_a_at) / RFU LOC730098 (11760151_x_at) / Fold change /veh LOC730098 (11760151_x_at) / RFU OR4N2 (11742367_at) / Fold change /veh OR4N2 (11742367_at) / RFU PRRT2 (11749266_a_at) / Fold change /veh PRRT2 (11749266_a_at) / RFU SNX32 (11753110_a_at) / Fold change /veh SNX32 (11753110_a_at) / RFU CDHR5 (11726645_a_at) / Fold change /veh CDHR5 (11726645_a_at) / RFU RCAN1 (11760418_a_at) / Fold change /veh RCAN1 (11760418_a_at) / RFU FAM167A (11723789_a_at) / Fold change /veh FAM167A (11723789_a_at) / RFU FAM26E (11764081_at) / Fold change /veh FAM26E (11764081_at) / RFU ISYNA1 (11749810_s_at) / Fold change /veh ISYNA1 (11749810_s_at) / RFU ACY1 (11761880_at) / Fold change /veh ACY1 (11761880_at) / RFU 11764098_at / Fold change /veh 11764098_at / RFU SAMD14 (11745864_x_at) / Fold change /veh SAMD14 (11745864_x_at) / RFU NPB (11741838_a_at) / Fold change /veh NPB (11741838_a_at) / RFU TMPRSS6 (11731388_a_at) / Fold change /veh TMPRSS6 (11731388_a_at) / RFU KRTAP10-2 (11738614_at) / Fold change /veh KRTAP10-2 (11738614_at) / RFU ARHGAP8 /// PRR5-ARHGAP8 (11727945_x_at) / Fold change /veh ARHGAP8 /// PRR5-ARHGAP8 (11727945_x_at) / RFU KRTAP5-7 /// NADSYN1 (11734609_at) / Fold change /veh KRTAP5-7 /// NADSYN1 (11734609_at) / RFU RASL12 (11751679_a_at) / Fold change /veh RASL12 (11751679_a_at) / RFU CDKN2B (11736163_a_at) / Fold change /veh CDKN2B (11736163_a_at) / RFU PRF1 (11729649_at) / Fold change /veh PRF1 (11729649_at) / RFU, ZNF638 /// ZNF638-IT1 / Fold change vs veh, ZNF638 /// ZNF638-IT1 / RFU, PANK3 / Fold change vs veh, PANK3 / RFU, SH3YL1 / Fold change vs veh, SH3YL1 / RFU, ZEB2 / Fold change vs veh, ZEB2 / RFU, NRIP1 / Fold change vs veh, NRIP1 / RFU, PTTG1IP / Fold change vs veh, PTTG1IP / RFU, CAPN2 / Fold change vs veh, CAPN2 / RFU, MED14 / Fold change vs veh, MED14 / RFU, SNORA58 / Fold change vs veh, SNORA58 / RFU, C1orf63 / Fold change vs veh, C1orf63 / RFU, LRRFIP1 / Fold change vs veh, LRRFIP1 / RFU, NDUFAF7 / Fold change vs veh, NDUFAF7 / RFU, SLC12A2 / Fold change vs veh, SLC12A2 / RFU, IBTK / Fold change vs veh, IBTK / RFU, ESF1 / Fold change vs veh, ESF1 / Fold change vs veh, TMEM50B / RFU, TAOK1 / Fold change vs veh, TAOK1 / RFU, ACBD3 / Fold change vs veh, ACBD3 / RFU, TMA16 / Fold change vs veh, TMA16 / RFU, RWDD3 / Fold change vs veh, RWDD3 / RFU, BCAT1 / Fold change vs veh, BCAT1 / RFU, EDEM3 / Fold change vs veh, EDEM3 / RFU, TMEM33 / Fold change vs veh, TMEM33 / RFU, WDR75 / Fold change vs veh, WDR75 / RFU, AHCTF1 / Fold change vs veh, AHCTF1 / RFU, TFRC / Fold change vs veh, TFRC / RFU, ZDHHC17 / Fold change vs veh, ZDHHC17 / RFU, NOM1 / Fold change vs veh, NOM1 / RFU, ARL8B / Fold change vs veh, ARL8B / RFU, ZBTB11 / Fold change vs veh, ZBTB11 / RFU, TAMM41 / Fold change vs veh, TAMM41 / RFU, KIAA1704 /// LOC100996395 / Fold change vs veh, KIAA1704 /// LOC100996395 / RFU, ING1 / Fold change vs veh, ING1 / RFU, TRMT61B / Fold change vs veh, TRMT61B / RFU, FUBP3 / Fold change vs veh, FUBP3 / RFU, TP53 / Fold change vs veh, TP53 / RFU, TNKS2 / Fold change vs veh, TNKS2 / RFU, ZFP14 / Fold change vs veh, ZFP14 / RFU, ACTR2 / Fold change vs veh, ACTR2 / RFU, PPP3R1 / Fold change vs veh, PPP3R1 / RFU, PIK3R1 / Fold change vs veh, PIK3R1 / RFU, HNRNPA1 / Fold change vs veh, HNRNPA1 / RFU, RNF170 / Fold change vs veh, RNF170 / RFU, ZNF28 / Fold change vs veh, ZNF28 / RFU, RNGTT / Fold change vs veh, RNGTT / RFU, OGT / Fold change vs veh, OGT / RFU, BRD1 / Fold change vs veh, BRD1 / RFU, MARS / Fold change vs veh, MARS / RFU, ZNF655 / Fold change vs veh, ZNF655 / RFU, FAHD1 / Fold change vs veh, FAHD1 / RFU, BDP1 / Fold change vs veh, BDP1 / RFU, LRRCC1 / Fold change vs veh, LRRCC1 / RFU, ARID1A / Fold change vs veh, ARID1A / RFU, ZNF146 / Fold change vs veh, ZNF146 / RFU, ZNF330 / Fold change vs veh, ZNF330 / RFU, GPN3 / Fold change vs veh, GPN3 / RFU, C9orf123 / Fold change vs veh, C9orf123 / RFU, N4BP2L2 / Fold change vs veh, N4BP2L2 / RFU, ARFIP1 / Fold change vs veh, ARFIP1 / RFU, FAM179B / Fold change vs veh, FAM179B / RFU, BCL10 / Fold change vs veh, BCL10 / RFU, UHRF1BP1L / Fold change vs veh, UHRF1BP1L / RFU, BET1 / Fold change vs veh, BET1 / RFU, CNOT2 / Fold change vs veh, CNOT2 / RFU, ZNF268 / Fold change vs veh, ZNF268 / Fold change vs veh, ZNF507 / RFU, DGCR2 / Fold change vs veh, DGCR2 / RFU, WDSUB1 / Fold change vs veh, WDSUB1 / Fold change vs veh, HSP90B1 /// MIR3652 / RFU, ADSS / Fold change vs veh, ADSS / RFU, GK / Fold change vs veh, GK / RFU, ZNF148 / Fold change vs veh, ZNF148 / RFU, TAF9 / Fold change vs veh, TAF9 / RFU, SLC1A5 / Fold change vs veh, SLC1A5 / RFU, SLMO2 / Fold change vs veh, SLMO2 / RFU, ABCC4 / Fold change vs veh, ABCC4 / RFU, LOC101060439 /// RAP1B / Fold change vs veh, LOC101060439 /// RAP1B / RFU, RFX7 / Fold change vs veh, RFX7 / RFU, GTPBP10 / Fold change vs veh, GTPBP10 / RFU, CNEP1R1 / Fold change vs veh, CNEP1R1 / RFU, BIVM-ERCC5 /// ERCC5 / Fold change vs veh, BIVM-ERCC5 /// ERCC5 / RFU, ILF3 / Fold change vs veh, ILF3 / RFU 11762660_at / Fold change /veh 11762660_at / RFU VCAN (11757783_s_at) / Fold change /veh VCAN (11757783_s_at) / RFU DDX43 (11728927_at) / Fold change /veh DDX43 (11728927_at) / RFU KRT8 (11758188_x_at) / Fold change /veh KRT8 (11758188_x_at) / RFU NKD1 (11759106_at) / Fold change /veh NKD1 (11759106_at) / RFU SRD5A1 (11742802_a_at) / Fold change /veh SRD5A1 (11742802_a_at) / RFU TPSAB1 /// TPSB2 (11721975_s_at) / Fold change /veh TPSAB1 /// TPSB2 (11721975_s_at) / RFU GSTM3 (11746129_a_at) / Fold change /veh GSTM3 (11746129_a_at) / RFU IL23R (11737362_x_at) / Fold change /veh IL23R (11737362_x_at) / RFU TMEM51 (11727254_a_at) / Fold change /veh TMEM51 (11727254_a_at) / RFU PIWIL2 (11732686_x_at) / Fold change /veh PIWIL2 (11732686_x_at) / RFU ORM1 (11744905_x_at) / Fold change /veh ORM1 (11744905_x_at) / RFU CCDC152 (11743942_at) / Fold change /veh CCDC152 (11743942_at) / RFU ECM1 (11717891_a_at) / Fold change /veh ECM1 (11717891_a_at) / RFU IL23R (11748794_a_at) / Fold change /veh IL23R (11748794_a_at) / RFU TNFAIP8L3 (11732012_x_at) / Fold change /veh TNFAIP8L3 (11732012_x_at) / RFU MBOAT4 (11741988_at) / Fold change /veh MBOAT4 (11741988_at) / RFU 11764193_at / Fold change /veh 11764193_at / RFU TMEM53 (11763286_at) / Fold change /veh TMEM53 (11763286_at) / RFU MAGEB2 (11727129_at) / Fold change /veh MAGEB2 (11727129_at) / RFU TMEM200A (11744735_a_at) / Fold change /veh TMEM200A (11744735_a_at) / RFU CCDC152 (11751479_a_at) / Fold change /veh CCDC152 (11751479_a_at) / RFU FAM211A (11726209_a_at) / Fold change /veh FAM211A (11726209_a_at) / RFU RGS16 (11746705_a_at) / Fold change /veh RGS16 (11746705_a_at) / RFU VCAN (11755009_s_at) / Fold change /veh VCAN (11755009_s_at) / RFU RHOB (11743442_s_at) / Fold change /veh RHOB (11743442_s_at) / RFU RGS16 (11720943_a_at) / Fold change /veh RGS16 (11720943_a_at) / RFU RGS16 (11720944_at) / Fold change /veh RGS16 (11720944_at) / RFU, VPS4B / Fold change vs veh, VPS4B / RFU, CREB1 / Fold change vs veh, CREB1 / RFU, DNAJC13 / Fold change vs veh, DNAJC13 / RFU, GNAQ / Fold change vs veh, GNAQ / RFU, CDK5R1 / Fold change vs veh, CDK5R1 / RFU, ZRANB3 / Fold change vs veh, ZRANB3 / RFU, CUL4A / Fold change vs veh, CUL4A / RFU, CCNY / Fold change vs veh, CCNY / RFU, UFL1 / Fold change vs veh, UFL1 / RFU, COG3 / Fold change vs veh, COG3 / RFU, DIAPH2 / Fold change vs veh, DIAPH2 / RFU, SKA2 / Fold change vs veh, SKA2 / RFU, AFF3 / Fold change vs veh, AFF3 / RFU, LMF1 / Fold change vs veh, LMF1 / RFU, IPO11 / Fold change vs veh, IPO11 / RFU, DFFB / Fold change vs veh, DFFB / RFU, FOXP1 / Fold change vs veh, FOXP1 / RFU, CARD8 / Fold change vs veh, CARD8 / RFU, STRN3 / Fold change vs veh, STRN3 / RFU, ADK / Fold change vs veh, ADK / RFU, RASSF2 / Fold change vs veh, RASSF2 / RFU, WIPF1 / Fold change vs veh, WIPF1 / RFU, LARP1B / Fold change vs veh, LARP1B / RFU, RASA1 / Fold change vs veh, RASA1 / RFU, RB1 / Fold change vs veh, RB1 / RFU, PPFIA1 / Fold change vs veh, PPFIA1 / RFU, MAT2A / Fold change vs veh, MAT2A / RFU, CCT5 / Fold change vs veh, CCT5 / RFU, WDR92 / Fold change vs veh, WDR92 / RFU, CUX1 / Fold change vs veh, CUX1 / RFU, TTC7A / Fold change vs veh, TTC7A / RFU, TMEM135 / Fold change vs veh, TMEM135 / RFU, DEPTOR / Fold change vs veh, DEPTOR / RFU, CPM / Fold change vs veh, CPM / RFU, DNAJB6 / Fold change vs veh, DNAJB6 / RFU, CACNA2D3 / Fold change vs veh, CACNA2D3 / RFU, DTX4 / Fold change vs veh, DTX4 / RFU, TFCP2 / Fold change vs veh, TFCP2 / RFU, GMCL1 /// GMCL1P1 / Fold change vs veh, GMCL1 /// GMCL1P1 / RFU, AEBP2 / Fold change vs veh, AEBP2 / RFU, SNHG1 /// SNORD22 /// SNORD25 /// SNORD26 /// SNORD27 /// SNORD28 /// SNORD29 /// SNORD31 / Fold change vs veh, SNHG1 /// SNORD22 /// SNORD25 /// SNORD26 /// SNORD27 /// SNORD28 /// SNORD29 /// SNORD31 / Fold change (Aza/veh), C12orf56 (ProbeSet 11735607_a_at) / Fold change (ACY-1035/veh), C12orf56 (ProbeSet 11735607_a_at) / Fold change (Aza/veh), FGFR1OP (ProbeSet 11751329_s_at) / Fold change (ACY-1035/veh), FGFR1OP (ProbeSet 11751329_s_at) / Fold change (Aza/veh), VPS36 (ProbeSet 11739960_a_at) / Fold change (ACY-1035/veh), VPS36 (ProbeSet 11739960_a_at) / RFU SYPL1 (11715823_x_at) / Fold change /veh SYPL1 (11715823_x_at) / RFU IGFBP7 (11715501_s_at) / Fold change /veh IGFBP7 (11715501_s_at) / RFU REEP3 (11722064_at) / Fold change /veh REEP3 (11722064_at) / RFU IGLL1 (11728026_x_at) / Fold change /veh IGLL1 (11728026_x_at): dose or concentration left out as unconfirmed
# Settings: ProbeSet 11720566_at; LIST D
compound,measurement,value
Nc1ccc(-c2cccs2)cc1NC(=O)c1ccc2c(c1)cc(C1CC1)n2CCN1CCOCC1 [ACY-1035],"RFU, BCAT1",827.78 RFU
